This is an account of results in patent US9821000B2, “Compounds, compositions and corresponding uses for preventing and/or treating of dyslipidemia” (CENTRE NATIONAL DE LA RECHERCHE SCIENTIFIQUE (CNRS), priority 2013, dated 2017).

SMILES strings stand for the structures. “Also recorded” adds a separate entry of the source.

The test system of assay [1] is hem1Δ yeasts. As to the kind of experiment: Phospholipid fatty acid content by mass spectrometry in lipo-intoxicated hem1Δ yeasts. The assay is classed as cell-based, Saccharomyces cerevisiae. The settings on record: hem1Δ, SFA accumulation, 100 μM compound; for production of di-unsaturated phospholipids (level of PC species 36:2): 7 h. The method, then: The hem1Δ yeasts were cultivated in standard conditions (control) or in conditions of SFA accumulation without (Ø) or with the addition of 100 μM of oleic acid, LPA or OAG as indicated.
FIG. 6A—After 7 h of incubation, the phospholipids (PL) were extracted and the different species of phosphatidylcholine (PC), which constitute the predominantly present PL were analyzed by mass spectrometry in positive mode, according to Pineau et al. (2008).
FIG. 6B—All the species of PL detectable in these conditions of mass spectrometry were analyzed to globally quantify the content in SFA forms.
The hem1Δ strain is cultivated in a YPG^A, YPG^+ or YPG^+ liquid medium+200 μM of compound to be tested in aerobic conditions, under stirring and at 28° C. for 7 h, starting from an initial cell concentration of 2·10^6 cells/mL. At the end of the culture, 10^8 cells are collected in order to carry out the extraction of the total lipids. After the cells have been put in suspension in 1 mL of distilled water at 4° C., 500 μL of glass beads (Ø 0.6 mm) are added and the whole mixture then undergoes three sequences of 20 seconds at 5000 rpm in a stirrer (the tubes are kept on ice between each of the three sequences). The cellular lysate then obtained, complemented with water for rinsing the beads (1 mL), is then transferred into a 40 mL glass tube (Corex™) and then the lipids are extracted by using a methanol:chloroform ratio of 2:1 (v/v). Initially, 6 mL of methanol are added and the entire mixture is vortexed for 30 seconds and then incubated for 15 minutes at 65° C. Once the mixture has been cooled to ambient temperature, […] of chloroform is added and then the entire mixture is again vortexed for 30 seconds before allowing the extraction to take place for 16 h. Subsequently, the sample is centrifuged for 12 minutes at 10000 g and then the supernatant is transferred into a new Corex™ tube. After the addition of 2 mL of chloroform and then 4 mL of distilled water, the entire mixture is vortexed for 30 seconds and then centrifuged for 8 minutes at 3000 g. After elimination of the resultant upper phase, the lower organic phase is collected in a hemolysis tube made of glass. Finally, the solvent is evaporated under a nitrogen stream at 80° C. to obtain total cell lipid samples.
The samples of total cell lipids are put back into suspension in 1 mL of dichloromethane in being vortexed for 30 seconds. The entire mixture is deposited on a silica column (BOND ELUT-SI, 100 mg 1 mL) preconditioned with 3 mL of methanol and then 2 mL of dichloromethane successively. The fraction retained by the column is then washed with 2 mL of dichloromethane and then 2 mL of acetone successively. Finally, 2 mL of a mixture of chloroform/methanol/water 50:45:5 (v/v/v) are deposited on the column and the phospholipids thus eluted are collected in a glass hemolysis tube. The solvent is evaporated under nitrogen at 80° C. to obtain the samples of cellular phospholipids.
Once put back into suspension in 100 μL of mixture Mix^− (isopropanol/acetonitrile/water 2:1:1 (v/v/v)+triethylamine 1% (v/v)) or mixture Mix^+ (isopropanol/acetonitrile/water 2:1:1 (v/v/v)+formic acid 1% (v/v)), the samples are analyzed by mass spectrometry (Electro Spray Ionization-Mass Spectrometry (ESI-MS)) in negative or positive mode respectively and the results obtained serve to analyze the fatty acid content of the different species of phospholipids.

For assay [2], the system named is hem1Δ yeasts. Put plainly: Restoration of growth of lipo-intoxicated hem1Δ yeasts (drop test on agar). Type of assay: cell-based, Saccharomyces cerevisiae. The settings on record: SFA accumulation conditions; 5 μl drops on agar; after three days. The method, then:
FIG. 3B—The hem1Δ yeasts were cultivated in conditions of SFA accumulation as indicated. 5 μl drops of OAG, LPA and oleic acid in the concentrations indicated were then deposited on the surface of the agar medium. The restoration of growth of the hem1Δ yeasts is observed in the formation of colonies after three days.
The strain carrying the hem1Δ strain is cultivated, under aerobic conditions, under stirring and at 28° C., in a YPG^A liquid medium (YPG (yeast extract 1% (m/v), peptone 1% (m/v) and glucose 2% (m/v)) supplemented with δ-aminolevulinic acid (ALA) at 80 μg/mL). Lipotoxicity by saturated fatty acids (SFA) is prompted by depletion of unsaturated fatty acids (UFA)—the synthesis of which is dependent on the presence of haem (prosthetic grouping of the enzyme Ole1p especially)—by transfer into YPG^+ medium (YPG supplemented with ergosterol at 80 μg/mL to compensate for the depletion in sterol obtained under these conditions). The lipotoxicity can be induced in a solid medium YPG^++agar 2% (m/v) in transferring 3500 cells (hem1Δ coming from a pre-culture in YPG^A)/cm^2 or *alternatively in a liquid medium in inoculating 2·10^6 cells/mL of YPG^+. Classically, the effects of lipotoxicity on SFA are analyzed 7 h after the transfer into YPG^+ medium. The capacity of a compound to counter the deleterious effects of lipotoxicity with SFA is for its part evaluated successively with the addition of this compound on (or in) the YPG^+ transfer medium after seeding with cells.
1) Screening of compounds: Following the induction of lipotoxicity with SFA (for hem1Δ cultivated in a solid medium), 5 μL drops of solutions of different compounds at 10 mM in dimethylsulfoxide (DMSO) or in ethanol (EtOH) are deposited on the surface of agar. The capacity of a compound to counter the lipo-induced stoppage of cell growth is estimated by the appearance of a halo of hem1Δ colonies at the position of the deposit of said compound after three days of culture at 28° C. (cf. Deguil et al., 2011).

On to `CCCCCCCC/C=C\CCCCCCCC(=O)OC[C@@H](O)COP(=O)(O)O` [LPA, 1-oleoyl-sn-glycerol-3-phosphate], for which the “production of di-unsaturated phospholipids (level of PC species 36:2)” value in the assay on hem1Δ yeasts [1] was “increase of the level of this species”. For the same molecule, the “restoration of growth of lipo-intoxicated hem1Δ yeasts (formation of colonies)” value in the assay on hem1Δ yeasts [2] is reported as “restore the growth”.

With `CCCCCCCC/C=C\CCCCCCCC(=O)OC[C@H](CO)OC(C)=O` [OAG, 1-oleoyl-2-acetyl-sn-glycerol], in the assay on hem1Δ yeasts [1], the “index of saturation of phospholipids compared with control condition” value is reported as “does not restore an index of saturation comparable to the one observed in the control condition” and the “production of di-unsaturated phospholipids (level of PC species 36:2)” value is listed as “does not restore the production; also recorded: not the case”. For the same molecule, the “restoration of growth of lipo-intoxicated hem1Δ yeasts (formation of colonies)” value in the assay on hem1Δ yeasts [2] was “restore the growth”.
